A word on the IC50: it is the midpoint of a concentration-inhibition curve.

We go through two molecules from patent publication US9790216B2, “3-substituted cyclopentylamine derivatives” (Merck Patent GmbH, priority 2013, dated 2017).

This test has as its target T1, human fatty acid synthase FASN (Homo sapiens, UniProt P49327).
T1 construct: human recombinant full-length fatty acid synthase; made in house; host or cells: SF9 cells
The experiment in a line: Biochemical activity testing of human fatty acid synthase FASN (NADPH fluorescence intensity enzyme assay). From the text:
• GST=Glutathione-S-transferase • FRET=Fluorescence resonance energy transfer • HTRF®=(homogenous time resolved fluorescence) • HEPES=4-(2-hydroxyethyl)-1-piperazine ethanesulfonic acid buffer • DTT=Dithiothreitol • BSA=bovine serum albumin • CHAPS=detergent; • CHAPS=3-[(3-cholamidopropyl)dimethylammonio]-1-propanesulfonate Biochemical Activity Testing of Human Fatty Acid Synthase FASN
Fatty acid synthase FASN is a multifunctional enzyme with seven catalytic activities thereby synthesising long chain fatty acids especially palmitoyl-CoA in the presence of co-factor NADPH starting from the substrates acetyl-CoA and malonyl-CoA. The reductive synthesis is realized by the oxidation of NADPH to NADP. Since NADPH has a high fluorescence intensity quantum yield compared to NADP with excitation at 340 nm and emission at 460 nm, the reaction can be monitored via the decrease in fluorescence intensity. The biochemical FASN activity testing was performed as 384 well two-time-point kinetic fluorescence intensity assay format in Greiner low volume medium binding 384-well black microtiter plates in a total assay volume of 8 μl and was used for high throughput screen. In each well 3 μl 40 nM human recombinant full-length fatty acid synthase (produced in-house in SF9 cells) were dispensed in the following assay buffer: 50 mM potassium phosphate buffer pH 7.0, 0.005% (w/v) BSA, 2 mM Glutathione, 0.02% Tween-20. Then 2 μl of 200 μM NADPH in assay buffer were added, followed by the addition of the test compounds in 10 dilution concentrations starting with 30 μM (final concentration) to get a final DMSO content of 1% (v/v). The mixture was incubated for at least 15 min at room temperature. After the pre-incubation the enzymatic reaction was started by the addition of 2 μl substrate solution (80 μM acetyl-CoA, 240 μM malonyl-CoA). A first fluorescence intensity measurement (time point one) was performed with an Envision multimode reader (Perkin Elmer LAS Germany GmbH) at excitation wavelength 340 nm (lamp mode) and emission wavelength 460 nm. The reaction was incubated for 30 minutes at room temperature. After this the fluorescence intensity was measured again in the Envision using the same parameters as described above (second time point measurement). The data were analysed by subtracting the first time point measurement value from the second time point measurement value (after the enzymatic reaction). The differences of the emission signals were determined. These reflect directly the conversion rate of NADPH. The full value used was the inhibitor-free reaction. A pharmacological zero value was used like GSK837149A (Sigma-Aldrich) in a final concentration of 5-10 μM. The inhibitory values (IC50) were determined using either the program Symyx Assay Explorer® or Condosseo® from GeneData.

T1 sequence (P49327 whole entry): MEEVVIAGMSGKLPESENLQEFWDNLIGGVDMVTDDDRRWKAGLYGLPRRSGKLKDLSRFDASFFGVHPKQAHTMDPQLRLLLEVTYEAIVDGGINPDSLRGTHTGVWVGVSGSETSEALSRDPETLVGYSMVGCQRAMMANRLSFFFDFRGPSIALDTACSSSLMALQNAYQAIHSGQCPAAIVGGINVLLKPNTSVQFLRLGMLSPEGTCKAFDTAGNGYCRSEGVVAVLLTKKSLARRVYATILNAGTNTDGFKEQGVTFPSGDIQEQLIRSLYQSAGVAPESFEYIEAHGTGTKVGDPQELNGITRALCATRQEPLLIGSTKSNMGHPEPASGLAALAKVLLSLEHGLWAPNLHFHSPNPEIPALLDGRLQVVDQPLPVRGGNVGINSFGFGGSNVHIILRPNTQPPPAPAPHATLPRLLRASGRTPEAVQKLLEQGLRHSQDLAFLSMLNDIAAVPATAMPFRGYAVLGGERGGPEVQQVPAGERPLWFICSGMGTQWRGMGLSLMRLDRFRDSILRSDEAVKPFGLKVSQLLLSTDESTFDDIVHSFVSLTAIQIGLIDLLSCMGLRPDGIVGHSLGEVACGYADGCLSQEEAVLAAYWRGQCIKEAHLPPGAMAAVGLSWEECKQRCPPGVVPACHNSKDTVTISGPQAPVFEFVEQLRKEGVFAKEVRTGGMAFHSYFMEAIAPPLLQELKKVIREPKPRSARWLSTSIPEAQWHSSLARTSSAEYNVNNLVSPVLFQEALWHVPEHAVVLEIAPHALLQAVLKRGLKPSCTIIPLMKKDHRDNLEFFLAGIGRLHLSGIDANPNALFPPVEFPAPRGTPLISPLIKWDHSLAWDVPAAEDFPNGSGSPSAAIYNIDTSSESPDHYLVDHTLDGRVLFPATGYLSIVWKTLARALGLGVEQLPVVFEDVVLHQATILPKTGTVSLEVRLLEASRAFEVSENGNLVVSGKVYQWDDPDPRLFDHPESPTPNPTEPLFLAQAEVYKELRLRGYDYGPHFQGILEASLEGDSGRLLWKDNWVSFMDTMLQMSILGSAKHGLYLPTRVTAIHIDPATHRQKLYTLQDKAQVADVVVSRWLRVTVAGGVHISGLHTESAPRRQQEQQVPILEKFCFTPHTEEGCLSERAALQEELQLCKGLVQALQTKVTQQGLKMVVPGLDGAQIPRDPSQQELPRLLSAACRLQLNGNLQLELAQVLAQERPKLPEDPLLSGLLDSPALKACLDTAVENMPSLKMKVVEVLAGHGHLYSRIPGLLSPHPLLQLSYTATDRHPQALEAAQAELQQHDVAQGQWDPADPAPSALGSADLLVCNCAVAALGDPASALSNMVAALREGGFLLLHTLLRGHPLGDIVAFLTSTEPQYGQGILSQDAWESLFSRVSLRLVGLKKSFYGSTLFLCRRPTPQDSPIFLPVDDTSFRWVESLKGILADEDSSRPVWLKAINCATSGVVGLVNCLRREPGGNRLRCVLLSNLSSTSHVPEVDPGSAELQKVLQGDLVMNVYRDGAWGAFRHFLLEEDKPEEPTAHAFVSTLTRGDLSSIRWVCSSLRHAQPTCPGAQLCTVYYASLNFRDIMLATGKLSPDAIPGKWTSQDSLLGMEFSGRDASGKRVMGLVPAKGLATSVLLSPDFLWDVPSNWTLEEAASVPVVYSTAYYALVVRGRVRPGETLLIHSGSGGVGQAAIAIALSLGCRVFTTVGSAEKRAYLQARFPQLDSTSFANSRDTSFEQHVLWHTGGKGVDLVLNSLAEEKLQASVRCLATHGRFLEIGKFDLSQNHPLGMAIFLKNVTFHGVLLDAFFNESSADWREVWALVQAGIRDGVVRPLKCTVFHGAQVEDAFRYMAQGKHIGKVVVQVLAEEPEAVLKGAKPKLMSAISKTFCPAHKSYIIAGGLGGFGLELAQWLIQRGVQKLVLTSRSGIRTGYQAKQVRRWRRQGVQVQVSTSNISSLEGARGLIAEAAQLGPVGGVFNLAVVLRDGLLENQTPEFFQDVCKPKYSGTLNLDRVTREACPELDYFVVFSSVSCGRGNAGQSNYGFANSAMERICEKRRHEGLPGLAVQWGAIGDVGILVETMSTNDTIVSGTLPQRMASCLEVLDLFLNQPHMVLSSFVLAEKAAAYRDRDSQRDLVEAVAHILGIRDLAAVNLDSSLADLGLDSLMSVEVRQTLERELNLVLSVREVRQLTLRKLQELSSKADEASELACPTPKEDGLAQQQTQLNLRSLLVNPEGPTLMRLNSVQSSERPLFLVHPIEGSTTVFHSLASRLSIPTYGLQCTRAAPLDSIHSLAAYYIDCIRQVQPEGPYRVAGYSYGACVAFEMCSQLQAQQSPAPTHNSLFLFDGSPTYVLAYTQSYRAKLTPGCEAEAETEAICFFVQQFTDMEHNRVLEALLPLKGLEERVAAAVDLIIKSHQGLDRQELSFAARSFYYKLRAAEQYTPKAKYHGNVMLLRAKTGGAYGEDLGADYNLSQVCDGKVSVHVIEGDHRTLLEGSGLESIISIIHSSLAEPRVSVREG

For `Cc1coc([C@H]2CC[C@@H](N(C)C(=O)c3ccc(-c4nc5ccccc5o4)cc3)C2)n1` [Compound A27, 4-benzoxazol-2-yl-N-methyl-N-[(1 R,3S)-3-(4-methyl-oxazol-2-yl)-cyclopentyl]-benzamide], the IC50 (human recombinant full-length FASN, inhibition) lay within 300 to 3000 nM.

`Cc1noc([C@H]2CC[C@@H](N(C)C(=O)c3ccc(-c4nc5ccccc5o4)cc3)C2)n1` [Compound A28, 4-benzoxazol-2-yl-N-methyl-N-[(1 R,3S)-3-(3-methyl-[1,2,4]oxadiazol-5-yl)-cyclopentyl]-benzamide]: the “IC50 FASN (enzyme assay): % at single concentration” value (@30 μM) is −38% @30 μM.
